{"source": "patent US5389621A", "about": "“Method of enhancing the anticoagulant effects of aspirin using salicylamide” (University of Medicine and Dentistry of New Jersey, priority 1994, dated 1995)", "format_in_all_cases": "in vivo, male Sprague-Dawley rats", "key": {"[1]": {"experiment": "Tissue distribution of 14C radioactivity after 14C-salicylamide", "experimental": "All animals were identified by ear punching. Food and water were provided ad libitum.\nForty-eight rats were divided into two groups.\nEach group consisted of 24 rats and was further divided into 4 subgroups, 6 rats each, according to the following scheme:\nThe rats were fasted overnight. The drug(s) were prepared fresh, dissolved in 2.5 ml of deionized water and administered orally by gavage needle. The rats were allowed water ad libitum before and after the oral administration.\nThe different treatments were given according to the previous scheme and each rat received an amount of radioactivity equal to […] in the case of radioactive aspirin and 10 μCu in the case of radioactive salicylamide. For the low and high dose ASA treatments 3696 and 1848 dpm ^14 C-ASA/μg total ASA were used respectively. For SAM, 24.4 and 12.2 dpm ^14 C-SAM/ng total SAM were utilized for low and high dose treatments, respectively.\nThe rats were anesthetized by light diethyl ether inhalation.\nThe rest of the red blood cells were washed twice by adding 2 ml of physiological saline and were resuspended after each addition. The red blood cells were centrifuged at 3000 rpm (1800×g) for 10 minutes and 300 μl were pipetted in a scintillation vial for measurement of ^14 C radioactivity.\nAfter collecting the blood sample, the rats were sacrificed immediately by a diethyl ether overdose. The following tissues were collected: liver, lung, kidney, heart, spleen, perinephric fat, brain, upper small intestine, stomach, pancreas, bone (femur and tibia), testis, skin and skeletal muscle. A sample of bone marrow was also collected (approximately20 mg).\n300 mg tissue samples were placed in scintillation vials and 300 μl of 70% perchloric acid and 600 μl of 30% hydrogen peroxide were added to each vial and also to the vials containing the washed red blood cells aliquots. The vials were incubated at 75° C. for 1 hour in a shaking water bath and were tightly capped to prevent any loss of radioactivity by evaporation.\nThe vials were left to cool to room temperature for 15 minutes before 10 ml Aquasol-2 scintillation fluid was added to each vial. The total radioactivity was counted in a Beckman model 7500 LS spectrophotometer."}, "vascular cyclooxygenase": {"system": "vascular cyclooxygenase", "experiment": "6-keto PG F1alpha production from thoracic aortic rings ex vivo", "details": "for Inhibition of PG I2 (6-keto PG F1alpha) / vascular cyclooxygenase: ASA 10 mg/kg or SAM 9 mg/kg, rat thoracic aortic rings ex vivo", "experimental": "The method used was a modification of that used by Dejana et al. (1981). Male Sprague-Dawley rats were randomly treated with either ASA (10 mg/kg), SAM (9 mg/kg), ASA/SAM (10/9 mg/kg), or isotonic saline. The rats were fasted overnight before administration of the treatments. Half an hour following treatment, the rats were exsanguinated by heart puncture under ether anesthesia and the thoracic aorta was immediately isolated, cleaned of adventitia, and flushed in situ with 5 ml of isotonic saline. The vessel was then removed and 2 rings (each was nearly 7 mg wet weight corresponding to 0.5 cm length) were cut from the middle part. The rings were immediately incubated in 160 μl of Krebs-Hanseleit buffer solution adjusted to pH 7.4 and containing AA (final concentration 4.3 mM) in polyethylene tubes. The tubes were incubated at 37° C. in a shaking water bath for 10 minutes. The reaction was terminated by the addition of 40 μl of EDTA/ASA solution and the tubes were centrifuged at 1800× g for 15 minutes at 4° C. 100 μl of the supernatant were used for the measurement of 6-keto PG F1alpha content as an indicator of its unstable precursor, PG I2. A specific radioimmunoassay (Amersham International) (vide infra) was employed.\nRadioimmunoassay Procedure for Measurement of Thromboxane B2 and 6-keto PG F1alpha\nThe procedure described below is for thromboxane A2. A similar procedure was used for 6-keto PG F1alpha measurement.\nOne way ANOVA followed by Scheffe multiple range test was employed for treatment comparisons. The accepted level of significance was p<0.05."}, "[2]": {"experiment": "Tightly protein-bound 14C radioactivity after 14C-aspirin", "experimental": "Forty-eight rats were divided into two groups. The first group of rats was administered ASA, SAM or their combination in a dose approximately equal (w/w) to that in the commercially available combinations, e.g., BC® formula, when administered to humans, i.e., 10 and 3 mg/kg of ASA and SAM, respectively. The second group was administered double the dosage received by the first group.\nThe rats were anesthetized by light diethyl ether inhalation. A blood sample of nearly 3 ml was collected by cardiac puncture 1.5 hours after oral administration. The blood was transferred to chilled polyethylene tubes containing 30 μl of 50% (w/w) potassium fluoride to prevent hydrolysis of ASA. A 300 μl aliquot was pipetted in a scintillation vial to study the distribution in whole blood. The rest of the collected blood was immediately centrifuged at 1800×g for 10 minutes at 4° C. and the plasma was decanted. 100 μl of the plasma were pipetted in a scintillation vial for measurement of the total radioactivity and the rest of the plasma was stored immediately at -70° C. for later study of the distribution of the metabolites.\nThe plasma tightly protein-bound activity was measured by adding 100 μl of 10% trichloroacetic acid (TCA) to 100 μl of plasma in microcentrifuge tubes and vortexing the contents for 1 minute followed by centrifugation at 1800×g for 10 minutes. The supernatant was decanted and the tubes with the pellets in them were placed in scintillation vials each containing 15 ml of Aquasol-2 scintillation fluid. […] The radioactivity in the scintillation vials was counted in Beckman LS counter."}, "[3]": {"details": "1.5 hr, oral 14C-ASA 10 mg/kg, alone or with SAM 3 mg/kg"}, "[4]": {"details": "1.5 hr, oral 14C-ASA 20 mg/kg, alone or with SAM 6 mg/kg"}, "[5]": {"details": "1.5 hr, 14C-SAM 3 mg/kg, alone or with ASA 10 mg/kg"}, "[6]": {"details": "1.5 hr, 14C-SAM 6 mg/kg, alone or with ASA 20 mg/kg"}}, "note": "Entries after “also recorded” stand apart in the source; their conditions may differ."}
{"smiles": "CC(=O)Oc1ccccc1C(=O)O", "note": "[ASA, acetylsalicylic acid]", "values": [{"measurement": "Change of tissue 14C in RBCs, bone, fat, skin, muscle, heart and others", "setting": "[1]; 14C-SAM/ASA 3/10 mg/kg vs 14C-SAM alone", "value": "enhanced the tissue concentration; also recorded: significant elevation"}, {"measurement": "Change of tissue 14C, high dose", "setting": "[1]; 14C-SAM/ASA high dose vs 14C-SAM alone, liver, lung, RBCs, and muscle or heart", "value": "significantly augmented"}, {"measurement": "Inhibition of PG I2 (6-keto PG F1alpha) / vascular cyclooxygenase", "setting": "vascular cyclooxygenase", "value": "inhibited PG I2"}]}
{"smiles": "NC(=O)c1ccccc1O", "note": "[SAM, Salicylamide]", "values": [{"measurement": "Inhibition of PG I2 (6-keto PG F1alpha) / vascular cyclooxygenase", "setting": "vascular cyclooxygenase", "value": "partially, but still significantly, block vascular cyclooxygenase activity"}, {"measurement": "Potentiation of ASA inhibitory effect on vascular cyclooxygenase", "setting": "vascular cyclooxygenase; SAM with ASA, ex vivo", "value": "significant potentiation"}, {"measurement": "Change of tightly protein-bound 14C, high dose", "setting": "[2]; 14C-ASA with SAM 20/6 mg/kg", "value": "did not reach significant levels"}, {"measurement": "Change of tightly protein-bound 14C in kidney", "setting": "[2]; low and high doses", "value": "not influenced"}]}
{"smiles": "CC(=O)Oc1ccccc1[14C](=O)O", "note": "[^14 C-ASA]", "values": [{"measurement": "Tightly protein-bound 14C in heart", "setting": "[2]; [3]", "value": "2.30 ± 0.28", "unit": "μg ^14 C/gm tissue"}, {"measurement": "Tightly protein-bound 14C in kidney", "setting": "[2]; [3]", "value": "3.85 ± 0.30", "unit": "μg ^14 C/gm tissue"}, {"measurement": "Tightly protein-bound 14C in liver", "setting": "[2]; [3]", "value": "3.93 ± 0.04", "unit": "μg ^14 C/gm tissue"}, {"measurement": "Tightly protein-bound 14C in lung", "setting": "[2]; [3]", "value": "1.62 ± 0.14", "unit": "μg ^14 C/gm tissue"}, {"measurement": "Tightly protein-bound 14C in plasma", "setting": "[2]; [3]", "value": "26.95 ± 2.67", "unit": "μg ^14 C/ml plasma"}, {"measurement": "Tightly protein-bound 14C in heart", "setting": "[2]; [4]", "value": "5.79 ± 0.40", "unit": "μg ^14 C/gm tissue"}, {"measurement": "Tightly protein-bound 14C in kidney", "setting": "[2]; [4]", "value": "11.66 ± 0.29", "unit": "μg ^14 C/gm tissue"}, {"measurement": "Tightly protein-bound 14C in liver", "setting": "[2]; [4]", "value": "9.81 ± 0.12", "unit": "μg ^14 C/gm tissue"}, {"measurement": "Tightly protein-bound 14C in lung", "setting": "[2]; [4]", "value": "5.84 ± 0.40", "unit": "μg ^14 C/gm tissue"}]}
{"smiles": "N[14C](=O)c1ccccc1O", "note": "[^14 C-SAM]", "values": [{"measurement": "Organs with the highest 14C concentration", "setting": "[1]; 14C-SAM alone or with ASA, low or high dose", "value": "kidney followed by the stomach"}, {"measurement": "14C radioactivity in RBCs", "setting": "[1]; [5]", "value": "103 ± 9", "unit": "ngm/gm tissu"}, {"measurement": "14C radioactivity in blood", "setting": "[1]; [5]", "value": "146 ± 20", "unit": "ngm/gm tissu"}, {"measurement": "14C radioactivity in bone", "setting": "[1]; [5]", "value": "60 ± 7", "unit": "ngm/gm tissu"}, {"measurement": "14C radioactivity in bone marrow", "setting": "[1]; [5]", "value": "14 ± 2", "unit": "ngm/50 mg bone marrow"}, {"measurement": "14C radioactivity in brain", "setting": "[1]; [5]", "value": "27 ± 5", "unit": "ngm/gm tissu"}, {"measurement": "14C radioactivity in fat", "setting": "[1]; [5]", "value": "41 ± 8", "unit": "ngm/gm tissu"}, {"measurement": "14C radioactivity in heart", "setting": "[1]; [5]", "value": "44 ± 5", "unit": "ngm/gm tissu"}, {"measurement": "14C radioactivity in kidney", "setting": "[1]; [5]", "value": "665 ± 152", "unit": "ngm/gm tissu"}, {"measurement": "14C radioactivity in liver", "setting": "[1]; [5]", "value": "100 ± 12", "unit": "ngm/gm tissu"}, {"measurement": "14C radioactivity in lung", "setting": "[1]; [5]", "value": "91 ± 11", "unit": "ngm/gm tissu"}, {"measurement": "14C radioactivity in muscle", "setting": "[1]; [5]", "value": "56 ± 7", "unit": "ngm/gm tissu"}, {"measurement": "14C radioactivity in pancreas", "setting": "[1]; [5]", "value": "93 ± 9", "unit": "ngm/gm tissu"}, {"measurement": "14C radioactivity in plasma", "setting": "[1]; [5]", "value": "147 ± 24", "unit": "ngm/gm tissu"}, {"measurement": "14C radioactivity in skin", "setting": "[1]; [5]", "value": "107 ± 10", "unit": "ngm/gm tissu"}, {"measurement": "14C radioactivity in spleen", "setting": "[1]; [5]", "value": "83 ± 20", "unit": "ngm/gm tissu"}, {"measurement": "14C radioactivity in stomach", "setting": "[1]; [5]", "value": "550 ± 154", "unit": "ngm/gm tissu"}, {"measurement": "14C radioactivity in testis (printed TESUIS)", "setting": "[1]; [5]", "value": "63 ± 7", "unit": "ngm/gm tissu"}, {"measurement": "14C radioactivity in upper small intestine", "setting": "[1]; [5]", "value": "130 ± 27", "unit": "ngm/gm tissu"}, {"measurement": "14C radioactivity in washed RBCs", "setting": "[1]; [5]", "value": "77 ± 10", "unit": "ngm/gm tissu"}, {"measurement": "14C radioactivity in RBCs", "setting": "[1]; [6]", "value": "118 ± 22", "unit": "ngm/gm tissu"}, {"measurement": "14C radioactivity in blood", "setting": "[1]; [6]", "value": "198 ± 32", "unit": "ngm/gm tissu"}, {"measurement": "14C radioactivity in bone", "setting": "[1]; [6]", "value": "153 ± 38", "unit": "ngm/gm tissu"}, {"measurement": "14C radioactivity in bone marrow", "setting": "[1]; [6]", "value": "29 ± 17", "unit": "ngm/50 mg bone marrow"}, {"measurement": "14C radioactivity in brain", "setting": "[1]; [6]", "value": "33 ± 1", "unit": "ngm/gm tissu"}, {"measurement": "14C radioactivity in fat", "setting": "[1]; [6]", "value": "130 ± 14", "unit": "ngm/gm tissu"}, {"measurement": "14C radioactivity in heart", "setting": "[1]; [6]", "value": "106 ± 10", "unit": "ngm/gm tissu"}, {"measurement": "14C radioactivity in kidney", "setting": "[1]; [6]", "value": "1358 ± 441", "unit": "ngm/gm tissu"}, {"measurement": "14C radioactivity in liver", "setting": "[1]; [6]", "value": "136 ± 12", "unit": "ngm/gm tissu"}, {"measurement": "14C radioactivity in lung", "setting": "[1]; [6]", "value": "218 ± 12", "unit": "ngm/gm tissu"}, {"measurement": "14C radioactivity in muscle", "setting": "[1]; [6]", "value": "78 ± 3", "unit": "ngm/gm tissu"}, {"measurement": "14C radioactivity in pancreas", "setting": "[1]; [6]", "value": "147 ± 9", "unit": "ngm/gm tissu"}, {"measurement": "14C radioactivity in plasma", "setting": "[1]; [6]", "value": "237 ± 49", "unit": "ngm/gm tissu"}, {"measurement": "14C radioactivity in skin", "setting": "[1]; [6]", "value": "240 ± 11", "unit": "ngm/gm tissu"}, {"measurement": "14C radioactivity in spleen", "setting": "[1]; [6]", "value": "200 ± 26", "unit": "ngm/gm tissu"}, {"measurement": "14C radioactivity in stomach", "setting": "[1]; [6]", "value": "832 ± 217", "unit": "ngm/gm tissu"}, {"measurement": "14C radioactivity in testis", "setting": "[1]; [6]", "value": "155 ± 17", "unit": "ngm/gm tissu"}, {"measurement": "14C radioactivity in upper small intestine", "setting": "[1]; [6]", "value": "268 ± 34", "unit": "ngm/gm tissu"}, {"measurement": "14C radioactivity in washed RBCs", "setting": "[1]; [6]", "value": "92 ± 12", "unit": "ngm/gm tissu"}]}
